The text below walks through data of patent publication US9207232B2, “Ceramide derivative and Golgi apparatus-labeling fluorescent probe using same” (National University Corporation Chiba University, priority 2011, dated 2015).

For data set [1], the system named is Golgi apparatus in CHO cells. The experiment in a line: Changes in localization to the Golgi apparatus over time (fluorescence observation). Format: cell-based, hamster. The following applies: 1 μM, 1, 2, 6, 24 or 48 hours at 37° C. The protocol: Subsequently, it was evaluated whether or not the localization of the compound 9 in the Golgi apparatus can be maintained over a long period of time. Specifically, by the method similar to that described above, the compound 9 or the NBD-C6-ceramide (negative control) (each of both is in 1 μM) was added, then the resultant mixture was cultured at 37° C. for 1, 2, 6, 24, or 48 hours, and the fluorescence (green) derived from the compound was observed.
The upper part of FIG. 4 is a set of pictures showing the results of the observation for the NBD-C6-ceramide (negative control), the pictures were taken by using a photomultiplier tube PMT:430. The middle part of FIG. 4 is a set of pictures showing the results of the observation for the compound 9, the pictures were taken by using a photomultiplier tube PMT:430. The lower part of FIG. 4 is a set of pictures showing the results of the observation for the compound. 9, the pictures were taken by using a photomultiplier tube PMT:500. At this point, the expression of “430” or “500” means detection sensitivity (size of the energy required to detect the emission derived from a compound), and the smaller the value, the higher the sensitivity. […]

The subject of data set [2] is Golgi apparatus in CHO cells. The experiment in a line: Evaluation of localization to the Golgi apparatus (co-staining with BODIPY-TR-Ceramide, confocal laser scanning microscope). Format: cell-based, hamster. The following applies: 1 μM, 1.5 hours, then BODIPY-TR-Ceramide 5 μM 30 minutes. The protocol: It was evaluated whether or not the localization of the compound 9 into a cell is really due to the localization to the Golgi apparatus. Specifically, BODIPY-TR-Ceramide (Cat D-7540 Red manufactured by Molecular Probes), which is another Golgi marker known to be difficult to be metabolized, was added together with the compound 9 into a cell, and the observation was performed by using a confocal laser scanning microscope.
Firstly, the CHO cells were seeded into each well of a 24-well plate at 0.5×10^4 cells/well, and cultured in a Ham's F12(+) medium at 37° C. for two days. […] After completion of the culture, the cells were washed twice in the same manner as described above, and then the fluorescence emission from the cells was observed. […] In addition, the time course of the cell culture and compound addition is the one recommended by data sheets or previous reports as the time course in which BODIPY-TR-Ceramide can be detected more sensitively. The observation was performed by using a confocal laser scanning microscope, and the measurement of the fluorescence emission from the BODIPY-TR-Ceramide was performed at the maximum excitation wavelength of 598 nm, and the maximum fluorescence wavelength of 617 nm, to measure the “red”. […]

For the next data set, the system named is cell. The experiment in a line: Staining of the Golgi apparatus with conventional probe (investigation by the present inventors). In kind it is cell-based. Particulars: cytotoxic effect. The protocol: A NBD-C6-ceramide has a cytotoxic effect, therefore, kills a cell itself within 24 hours from the incorporation into the cell, and thus the cell observation cannot be continued anymore. Further, an endogenous ceramide is metabolized into a glucosylceramide by being added with an oligosaccharide in the Golgi apparatus, or metabolized into sphingomyelin by receiving the transfer of phosphocholine from phosphatidylcholine, as a result, the metabolite is sent to cell membrane and becomes a component of the cell membrane. The NBD-C6-ceramide is, in the same manner as in the endogenous ceramide, metabolized to glucosylceramide or sphingomyelin in the Golgi apparatus, and the metabolite is transported to cell membrane from the Golgi in a few hours, therefore, the continuous staining is also difficult in this respect.

The test system of data set [3] is Golgi apparatus in CHO cells. Particulars: 30 minutes after addition, or two hours later when metabolized; J Cell Biol. 1985; cited from earlier work.
The subject of data set [4] is CHO cells. The experiment in a line: Evaluation of cytotoxicity (alteration of cell shape). Format: cell-based, hamster. Particulars: 10 μM, serum-free medium, cultured one day. The protocol: As to the compound 9 synthesized in the above, the cytotoxicity was evaluated as the effect on the change in cell morphology.
As the cultured cells, cells obtained by the culture of CHO cells, which is a cell strain derived from the ovary of hamster, in a Ham's F12 medium were used.
Firstly, the CHO cells were seeded into each well of a 24-well plate at 2×10^4 cells/well, and cultured in a Ham's F12(+) medium at 37° C. for one day. After that, in order to eliminate the influence of ceramide, sphingosine, and the like, medium exchange to a medium in which 0.1% BSA and 10 mM HEPES are added into a Ham's F12(−) medium which is a serum-free medium was performed, and in the presence of the compound 9 (10 μM), the culture was further performed for one day. Further, as a negative control, the same experiment was performed with the a NBD-C6-ceramide described in Non Patent Literature 1.

The test system of data set [5] is CHO cells. The experiment in a line: Evaluation of cytotoxicity (changes in cell number). Particulars: 10 μM; for cell number after addition (24 hours) relative to before addition: before addition = 100%, no additives 170 ± 51%; for cell number after addition (24 hours): serum-free medium, before addition 12,600 cells/well. In kind it is cell-based, hamster. The protocol: Subsequently, as to the compound 9 synthesized in the above, the cytotoxicity was evaluated as the effect on the change in cell number.
Firstly, the CHO cells were seeded into each well of a 24-well plate at 1×10^4 cells/well, and cultured in a Ham's F12(+) medium at 37° C. for one day. The cell number one day after the culture was 1.26×10^4 cells/well. After that, medium exchange to a medium in which 0.1% BSA and 10 mM HEPES are added into a Ham's F12(−) medium which is a serum-free medium was performed, and in the presence of the compound 9 (10 μM), the culture was further performed for one day. Further, as a negative control, the same experiment was performed with the NBD-C6-ceramide described in Non Patent Literature 1. In addition, the same experiment was also performed for the case of no additives.

The test system of data set [6] is CHO cells. The experiment in a line: Evaluation of intracellular metabolism by TLC. The following applies: 10 μM. Format: in vitro ADME, hamster. The protocol: (§1) Firstly, the CHO cells were seeded into each well of a 24-well plate at 2×10^4 cells/well, and cultured in a Ham's F12(+) medium at 37° C. for one day. After that, medium exchange to a medium in which 0.1% BSA and 10 mM HEPES are added into a Ham's F12(−) medium which is a serum-free medium was performed, and the culture was further performed at 37° C. for 18 hours, then into which the compound 9 (10 μM) was added. After the addition, the resultant mixture was cultured at 37° C. for 1, 2, 6, 24, or 48 hours, and subjected to an assay. Further, as a negative control, the same experiment was performed with the NBD-C6-ceramide. Herein, ceramide, sphingosine, and the like are contained in the serum, and the incorporation and metabolism of these substances are constantly in progress. Therefore, in this experiment, firstly, the cells were cultured for 18 hours in a serum-free medium, and the incorporation and metabolism of a serum-derived compound were decreased, then the test compound was added, and thus an experimental system was constructed such that the pure incorporation and metabolism of the test compound itself can be measured.
As the assay, firstly, the incorporation of the ceramide derivative (compound 9) into a cell was evaluated. Specifically, cells that had been cultured for a predetermined time in the presence of the compound were washed twice with HBSS (Hank's Balanced Salt Solution: pH 7.4) containing 0.1% BSA and 10 mM HEPES, and then using a cell scraper and 250 μL of HBSS, the cells were detached from the wells. Into the cell extract thus obtained, 500 μL of chloroform, 500 μL of methanol, and 250 μL of water were added, and the cell extract was prepared in two-layer form of an organic layer and an aqueous layer. Further, since the ceramide derivative and other major sphingolipids are compounds that migrate to the organic layer, the cell extract in two-layer form was centrifuged for 10 minutes under the conditions of 3000 rpm at 4° C., and thus only the organic layer was isolated.
On the other hand, as another assay, the metabolism of the ceramide derivative (compound 9) was evaluated. Specifically, 20 μL of the organic layer sample thus obtained above was spotted on a TLC plate, and developed with a development solvent (1-butanol:acetic acid:water=3:1:1), then the intracellular metabolism of the sample was evaluated by using an image analyzer (LAS1000).
Further, by using a free software (Image J), the abundance of each metabolite was converted into a numerical value. The results are shown in E) of FIG. 2 (NBD-C6-ceramide (negative control)), and F) of FIG. 2 (compound 9). In the meantime, the numerical value of each amount of C16-glucosylceramide-NBD-like molecules and C16-sphingomyelin-NBD-like molecules was determined from the mobility in the TLC.

Data set [7] concerns CHO cells. The experiment in a line: Evaluation of incorporation into cell (fluorescence of organic layer extract). Particulars: 10 μM, 1, 2, 6, 24 or 48 hours at 37° C. In kind it is cell-based, hamster. The protocol:
as §1, with “Herein, ceramide, sphingosine, and the like are contained in the serum, and the incorporation and metabolism of these substances are constantly in progress.” left out
As the assay, firstly, the incorporation of the ceramide derivative (compound 9) into a cell was evaluated. […]
Subsequently, the obtained organic layer sample was added into a 96-well plate, and the fluorescence emission of the ceramide derivative was detected by using an image analyzer (LAS1000, manufactured by FUJIFILM Corporation). […]

Molecules are shown by their SMILES. Values joined by “and” are separate entries in the source; they are usually repeats but may differ in a detail not shown here. Equal entries are not always repeated.

For `CCCCCCCCCCCCC/C=C/[C@@H](O)[C@H](CO)NC(=O)CCCCCNc1ccc([N+](=O)[O-])c2nonc12` [NBD-C6-ceramide], the “fluorescence (emission) intensity in cells with the lapse of time” value in data set [1] was “attenuated with the lapse of time”. The “co-localization with Golgi marker BODIPY-TR-Ceramide” value in data set [2] was “co-localized with the BODIPY-TR-Ceramide”. Further, in the data set with cell, the “time from incorporation into the cell until the cell is killed” value was no more than 24 h. Besides, the “retention in the Golgi apparatus after addition into a cell” value in data set [3] is recorded as “remains in the Golgi apparatus”. For the same molecule, the “alteration of cell shape (roundation)” value in the data set with CHO cells [4] was “the alteration of cell shapge (roundation) was observed”. In the data set with CHO cells [5], the “cell number after addition (24 hours) relative to before addition” value is 77% and 77 ± 2%; the “cell number after addition (24 hours)” value is listed as 9,690 ± 260 cells/well. Further, the “fraction that became a metabolite in 6 hours” value in the data set on CHO cells [6] is 30%. Further, in the data set on CHO cells [6] (24 hours), the “amount of compound after metabolism in 24 hours” value is “decreased by half”. Also, the “fraction metabolized in 48 hours” value in the data set on CHO cells [6] (48 hours) is roughly 90%. In addition, the “amount incorporated into a cell with the lapse of time” value in the data set with CHO cells [7] is given as “decreased with the lapse of time”.
On to `CCCCCCCCCCCCCCCC(=O)N[C@@H](COC(C)=O)[C@H](O)/C=C/CCCCCCCCCNc1ccc([N+](=O)[O-])c2nonc12` [compound 9, (2S,3R)-(E)-3-hydroxy-14-((7-nitrobenzo[c][1,2,5]oxadiazole-4-yl)amino)-2-palmitamide tetradec-4-en-1-yl acetate], for which the “fluorescence (emission) intensity in cells with the lapse of time” value in data set [1] is “gradually increased with the lapse of time”. Moreover, the “co-localization with Golgi marker BODIPY-TR-Ceramide” value in data set [2] is “co-localized with the BODIPY-TR-Ceramide”. Also, the “alteration of cell shape (roundation)” value in the data set with CHO cells [4] is reported as “the roundation was not observed”. Further, the “cell number after addition (24 hours) relative to before addition” value in the data set on CHO cells [5] came out at 159%; in the data set with CHO cells [5] (listed as Acetyl-C16-ceramide-NBD), 159 ± 33%. Moreover, the “cell number after addition (24 hours)” value in the data set with CHO cells [5] was 20,000 ± 4100 cells/well. For the same molecule, the “fraction that became a metabolite in 6 hours” value in the data set with CHO cells [6] is recorded as “around 10%”. Moreover, the “fraction remaining as it is without being metabolized in 48 hours” value in the data set on CHO cells [6] (48 hours) is reported as no less than 70%. In the data set with CHO cells [7], the “amount incorporated into a cell with the lapse of time” value is on record as “increased with the lapse of time”.
